Source: paper PMC7614687, “Modulation of the substrate specificity of the kinase PDK1 by distinct conformations of the full-length protein*” (Science signaling, 2023)

Assays:
SNAP-PDK1 = biological target: T1, SNAP-PDK1 (Homo sapiens, UniProt O15530); test: STORM-based single particle fluorescence of PDK1 monomers and dimers; conditions: 15 μM HYG8
T1 construct: SNAP-PDK1_50-556 (15 μM, in buffer Tris-HCl 50 mM pH 7.4); His (N); made in house; host or cells: insect cells
T1 sequence (O15530 50-556): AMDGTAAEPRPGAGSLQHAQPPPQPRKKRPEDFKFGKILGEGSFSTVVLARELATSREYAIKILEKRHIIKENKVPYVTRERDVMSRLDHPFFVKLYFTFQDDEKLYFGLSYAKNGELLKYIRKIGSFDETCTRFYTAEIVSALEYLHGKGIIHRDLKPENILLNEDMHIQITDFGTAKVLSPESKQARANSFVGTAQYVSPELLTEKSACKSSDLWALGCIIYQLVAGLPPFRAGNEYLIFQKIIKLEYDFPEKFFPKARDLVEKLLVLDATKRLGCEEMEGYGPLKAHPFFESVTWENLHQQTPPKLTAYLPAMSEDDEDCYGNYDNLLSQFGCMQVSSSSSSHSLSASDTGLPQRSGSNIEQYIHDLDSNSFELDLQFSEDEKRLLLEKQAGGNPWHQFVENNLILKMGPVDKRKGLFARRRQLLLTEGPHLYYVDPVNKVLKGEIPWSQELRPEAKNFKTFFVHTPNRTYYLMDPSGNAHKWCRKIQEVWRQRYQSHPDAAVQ
Description: SNAP-PDK1_50-556 (15 μM, in buffer Tris-HCl 50 mM pH 7.4, 200 mM NaCl, 200 mM imidazole and 1 mM DTT) was incubated with SNAP-Cell TMR-Star substrate (NEB) (30 μM) in the dark at room temperature for 1 h. Labelled SNAP-PDK1 was isolated by gel filtration using a PD MidiTrap G-25 Sephadex Column (GE). 10 μl labelled TMR-SNAP-PDK1 was diluted in buffer 50 mM Tris-HCl 50 mM pH 7.4 containing 100 mM NaCl and 1 mM DTT (control) or in the same buffer containing 15 μM HYG8 in a final volume of 20 μl. […] The slides were analysed using stochastic optical reconstruction microscopy (STORM) technology. Fluorescence from monomers was differentiated from that from dimers by the intensity of the fluorescence signals. […]
The STORM microscope used was custom-built around an OlympusIX-73 inverted microscope, as described previously ([96]). A 532 nm 1.5 W laser (Laser Quantum Ventus 532) was used for fluorescence excitation of TMR-Star. […] Images were recorded by an EMCCD camera (Andor iXon3 897). […] After calibration, the parameters selected in the STORM’s software were: shape, two color 120X; view, single; horizontal readout rate, 5.0 MHz; speed, 3.3 μs; clock voltage, normal; frame transfer mode, (select); set exposure time, 100 ms, real exposure time, 100 ms; real accumulation time, 102 ms; effective frame rate, 9.38 Hz; pre amplifier gain 5.1; electron multiplier gain, 30; laser power, 5 mW. […]

PDK1 = biological target: T2, PDK1 (Homo sapiens, UniProt O15530); test: PDK1 activity assay with T308tide and [γ32P]ATP; type: biochemical; parameters: made in house; host or cells: HEK293 (GST fusion) or Sf9 insect cells (His form); conditions: full-length PDK1
T2 sequence (O15530 1-556): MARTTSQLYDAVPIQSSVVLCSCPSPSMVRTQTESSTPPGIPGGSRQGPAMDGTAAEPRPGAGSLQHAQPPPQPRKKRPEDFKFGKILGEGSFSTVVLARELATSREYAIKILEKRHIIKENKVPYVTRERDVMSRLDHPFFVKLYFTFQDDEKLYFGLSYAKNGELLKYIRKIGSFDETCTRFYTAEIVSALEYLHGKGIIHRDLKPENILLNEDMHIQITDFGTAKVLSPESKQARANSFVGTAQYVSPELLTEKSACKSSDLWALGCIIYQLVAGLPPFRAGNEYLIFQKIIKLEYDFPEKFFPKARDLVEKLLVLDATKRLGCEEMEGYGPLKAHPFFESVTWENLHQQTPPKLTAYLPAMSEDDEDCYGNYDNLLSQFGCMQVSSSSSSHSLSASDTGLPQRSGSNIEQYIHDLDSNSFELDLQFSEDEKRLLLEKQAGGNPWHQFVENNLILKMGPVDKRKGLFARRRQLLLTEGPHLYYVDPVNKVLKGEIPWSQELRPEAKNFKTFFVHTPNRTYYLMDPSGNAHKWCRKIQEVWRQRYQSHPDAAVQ
Description: The PDK1 activity assay using T308tide as a substrate was performed essentially as previously described ([18], [28], [54]). In brief, the assay was performed in a 20 μl format containing 50 mM Tris pH 7.5, 0.05 mg/ml BSA, 0.1% ß-mercaptoethanol, 10 mM MgCl2, 100 μM [γ^32P]ATP (5-50 cpm/pmol), 0.003% Brij, 150-500 ng PDK1, and T308tide (0.3 mM) at room temperature. The assay was performed in 96 well plated and stopped by the addition of 5 μl of 0.1 % phosphoric acid. 4 μl aliquots were spotted on p81 phosphocellulose papers (Whatmann) using ep motion 5070 (Eppendorf). The phosphocellulose papers were washed in 0.01% phosphoric acid, dried, and exposed using PhosphoImager (FLA-9000 Starion). Data were analyzed with ImageQuant software (Fujifilm). Activity measurements were performed in technical duplicates or triplicates with less than 10% difference between replicates. Experiments were repeated at least twice. The activity measurements of PDK1 towards GS-022 and GS-023 were performed similarly, with the GS-peptides replacing T308tide at the indicated concentrations. GS-022 and GS-023 have features consistent with the loose characteristics disclosed for the peptide Ser/Thr 07, ((R/K)1-3(X)0-2 (S/T) (X)0-2(R/K)1-3, where X is any residue) used by the commercial “PDK1 Direct” assay.

In the case of `O=C(O[C@H]1[C@@H](OP(=O)(O)O)[C@H](OP(=O)(O)O)[C@@H](OP(=O)(O)O)[C@H](OP(=O)(O)O)[C@H]1OP(=O)(O)O)c1ccccc1` [HYG8, 2-O-benzoyl-IP5], the “effect on proportion of PDK1 dimers” value (SNAP-PDK1) is reported as “decreased the proportion of PDK1 dimers” and the “effect on activity of full-length PDK1 toward T308tide” value (PDK1) is reported as “partially inhibited”.
